Test results taken from the supplement of paper PMC10307832.

What was measured:
Assay in all cases: relative viability (nuclei count vs DMSO), 5 days (fraction); higher = more cells survive
Bexarotene + Trametinib = compound: C=C(c1ccc(C(=O)O)cc1)c1cc2c(cc1C)C(C)(C)CCC2(C)C [Bexarotene] + CC(=O)Nc1cccc(-n2c(=O)n(C3CC3)c(=O)c3c(Nc4ccc(I)cc4F)n(C)c(=O)c(C)c32)c1 [Trametinib] (partner 0.02 µM)
Procedure, shortened: (§1)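 A single step with final 0.05% Triton X-100, 1% formaldehyde and 1 ug/ml Hoechst fixed the cells and stained nuclei 5 days after treatment. Lung cancer cell lines in 1536-well plates had been treated by pin tool the day after seeding with one drug alone or a fixed anchor-drug dose plus five library-drug doses (not always all listed) in √10 steps, and nuclei were counted on 4× images. Relative viability is the ratio of nuclei in treated wells to nuclei in vehicle wells, taken as the median of duplicate plates.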

Bexarotene + OSI-027 = compound: C=C(c1ccc(C(=O)O)cc1)c1cc2c(cc1C)C(C)(C)CCC2(C)C [Bexarotene] + COc1cccc2cc(-c3nc([C@H]4CC[C@H](C(=O)O)CC4)n4ncnc(N)c34)[nH]c12 [OSI-027] (partner 0.5 µM)
Procedure, shortened: as §1

Bexarotene + Lapatinib = compound: C=C(c1ccc(C(=O)O)cc1)c1cc2c(cc1C)C(C)(C)CCC2(C)C [Bexarotene] + CS(=O)(=O)CCNCc1ccc(-c2ccc3ncnc(Nc4ccc(OCc5cccc(F)c5)c(Cl)c4)c3c2)o1 [Lapatinib] (partner 2 µM)
Procedure, shortened: as §1

Bexarotene + Linsitinib = compound: C=C(c1ccc(C(=O)O)cc1)c1cc2c(cc1C)C(C)(C)CCC2(C)C [Bexarotene] + C[C@]1(O)C[C@@H](c2nc(-c3ccc4ccc(-c5ccccc5)nc4c3)c3c(N)nccn32)C1 [Linsitinib] (partner 1 µM)
Procedure, shortened: as §1

Row | Cell Line | relative viability (Bexarotene + Trametinib; first compound 0.08 µM) | relative viability (Bexarotene + Trametinib; first compound 0.253 µM) | relative viability (Bexarotene + Trametinib; first compound 0.8 µM) | relative viability (Bexarotene + Trametinib; first compound 2.53 µM) | relative viability (Bexarotene + Trametinib; first compound 8 µM) | relative viability (Bexarotene + OSI-027; first compound 0.08 µM) | relative viability (Bexarotene + OSI-027; first compound 0.253 µM) | relative viability (Bexarotene + OSI-027; first compound 0.8 µM) | relative viability (Bexarotene + OSI-027; first compound 2.53 µM) | relative viability (Bexarotene + OSI-027; first compound 8 µM) | relative viability (Bexarotene + Lapatinib; first compound 0.08 µM) | relative viability (Bexarotene + Lapatinib; first compound 0.253 µM) | relative viability (Bexarotene + Lapatinib; first compound 0.8 µM) | relative viability (Bexarotene + Lapatinib; first compound 2.53 µM) | relative viability (Bexarotene + Lapatinib; first compound 8 µM) | relative viability (Bexarotene + Linsitinib; first compound 0.08 µM) | relative viability (Bexarotene + Linsitinib; first compound 0.253 µM) | relative viability (Bexarotene + Linsitinib; first compound 0.8 µM) | relative viability (Bexarotene + Linsitinib; first compound 2.53 µM) | relative viability (Bexarotene + Linsitinib; first compound 8 µM)
1 | HCC-366 | 0.357 | 0.375 | 0.361 | 0.295 | 0.263 | 1.2 | 0.968 | 0.974 | 0.888 | 0.913 | 0.984 | 1.06 | 1.06 | 1.04 | 1.06 | 1.1 | 0.781 | 0.774 | 0.715 | 0.635
2 | HCC-827 | 0.525 | 0.576 | 0.493 | 0.496 | 0.51 | 0.843 | 0.739 | 0.715 | 0.867 | 0.74 | 0.274 | 0.159 | 0.185 | 0.196 | 0.196 | 1.01 | 0.966 | 0.896 | 0.906 | 0.854
3 | HOP-62 | 0.412 | 0.502 | 0.385 | 0.412 | 0.422 | 0.92 | 0.841 | 0.847 | 0.803 | 0.802 | 1.02 | 1.09 | 0.943 | 1.14 | 1.1 | 1.01 | 1.17 | 1.15 | 1.02 | 0.909
4 | IA-LM | – | – | – | – | – | – | – | – | – | – | – | 0.773 | 0.68 | 0.536 | 0.694 | 0.682 | 0.581 | 0.523 | 0.603 | 0.51
5 | LC-2-ad | 1.06 | 0.941 | 0.96 | 0.968 | 0.948 | 0.894 | 0.944 | 0.779 | 0.8 | 0.881 | 0.993 | 1.09 | 1.07 | 0.994 | 0.997 | 0.88 | 0.94 | 0.742 | 0.786 | 0.881
6 | LCLC-97TM1 | 0.187 | 0.216 | 0.157 | 0.165 | 0.191 | 0.427 | 0.54 | 0.598 | 0.561 | 0.515 | 1.05 | 1.2 | 1.39 | 1.15 | 1.19 | 0.185 | 0.193 | 0.185 | 0.207 | 0.224
7 | LCLC-103H | 0.761 | 0.697 | 0.678 | 0.663 | 0.764 | 0.522 | 0.434 | 0.354 | 0.461 | 0.448 | – | – | – | – | – | 1.24 | 1.15 | 1 | 1.06 | 1.14
8 | LK-2 | 0.838 | 0.895 | 0.779 | 0.719 | 0.915 | 0.262 | 0.207 | 0.237 | 0.202 | 0.255 | 1.33 | 1 | 1.04 | 0.968 | 0.961 | 0.513 | 0.713 | 0.692 | 0.705 | 0.773
9 | LOU-NH91 | 0.81 | 0.856 | 0.807 | 0.795 | 0.759 | 0.709 | 0.718 | 0.606 | 0.599 | 0.643 | 0.736 | 0.755 | 0.691 | 0.695 | 0.722 | 0.912 | 0.901 | 0.806 | 0.79 | 0.823
10 | LU99A | 0.659 | 0.531 | 0.608 | 0.52 | 0.417 | 0.325 | 0.361 | 0.286 | 0.316 | 0.315 | 1.12 | 0.917 | 0.929 | 0.99 | 1.03 | 0.616 | 0.504 | 0.477 | 0.518 | 0.653
11 | LXF-289 | 0.797 | 0.832 | 0.792 | 0.755 | 0.747 | 0.912 | 0.925 | 0.757 | 0.572 | 0.731 | 1 | 1.07 | 1.04 | 1.07 | 1.03 | 1.06 | 1.11 | 1.04 | 1.11 | 1.01
12 | NCI-H441 | 0.568 | 0.481 | 0.669 | 0.527 | 0.633 | 0.763 | 0.67 | 0.645 | 0.585 | 0.672 | – | – | – | – | – | 0.587 | 0.583 | 0.578 | 0.616 | 0.556
13 | NCI-H1299 | – | – | – | – | – | – | – | – | – | – | 1.02 | 1.03 | 1.04 | 0.917 | 0.964 | 1.02 | 1.01 | 0.991 | 1.02 | 0.94
14 | NCI-H1563 | – | – | – | – | – | 0.842 | 0.787 | 0.813 | 0.897 | 0.849 | 1.09 | 0.945 | 0.799 | 0.903 | 0.891 | 1.21 | 1.28 | 1.03 | 1.06 | 1.04
15 | NCI-H1648 | 0.448 | 0.483 | 0.559 | 0.469 | 0.529 | 0.272 | 0.262 | 0.27 | 0.225 | 0.255 | – | – | – | – | – | – | – | – | – | –
16 | NCI-H1650 | 0.56 | 0.474 | 0.614 | 0.466 | 0.477 | 0.612 | 0.734 | 0.598 | 0.726 | 0.622 | 0.813 | 0.707 | 0.871 | 0.659 | 0.745 | – | – | – | – | –
17 | NCI-H1703 | – | – | – | – | – | – | – | – | – | – | 1.14 | 1.11 | 0.802 | 0.834 | 0.762 | 0.846 | 1.02 | 1.02 | 0.619 | 0.629
18 | NCI-H2170 | 0.901 | 0.916 | 0.886 | 0.785 | 0.768 | 0.699 | 0.757 | 0.636 | 0.683 | 0.604 | 0.264 | 0.245 | 0.275 | 0.305 | 0.273 | – | – | – | – | –
19 | NCI-H2342 | 0.927 | 0.767 | 0.794 | 0.825 | 0.745 | 0.612 | 0.6 | 0.553 | 0.686 | 0.707 | – | – | – | – | – | – | – | – | – | –
20 | SW 900 | 0.635 | 0.846 | 0.85 | 0.81 | 0.647 | 0.673 | 0.739 | 0.739 | 0.55 | 0.451 | – | – | – | – | – | – | – | – | – | –
